These compounds were tested on THP-1 viability, CellTiter-Glo luminescence, 72 h (assay: human monocytic cell viability reduction – S. typhimurium screen hits, cytotoxicity control for Salmonella PhoP regulon inhibitors, dose response (AID 2253)).
`Cc1nc([N+](=O)[O-])c(Br)n1CC(=O)c1ccccc1` showed an EC50 of 17.7 µM. `CCOc1cc(/C=N/N=C(N)N)ccc1OCc1ccc(Cl)cc1` gave an EC50 of 5.19 µM. In the case of `O=C1c2[nH]nc(-c3ccccc3O)c2C(c2ccc(F)cc2)N1Cc1ccco1` (stereo unspecified), the EC50 is reported as 20 µM. With `CCCCCCCCCCOC(=O)Cn1c(COc2ccccc2)[n+](C)c2ccccc21` the EC50 was 8.34 µM. `O=C1C(SCCO)=C(SCCO)C(=O)c2ccccc21` gave an EC50 of 8.13 µM. For `Oc1c(CN2CCOCC2)cc(COCc2ccccc2)c2cccnc12`, the EC50 was 3.1 µM. For `Nc1ncn(C2O[C@H](CO)[C@@H](O)[C@H]2O)c(=O)n1` (stereo partly specified), the EC50 was 10.8 µM. `CC1CCC(C(C)C)C(OC(=O)Cn2c(COc3ccccc3)[n+](C)c3ccccc32)C1` (stereo unspecified) was tested, and the EC50 was 2.6 µM. `O=[N+]([O-])c1ccc(O)c(/C=N/Nc2ccccn2)c1` was tested, and the EC50 was 0.42 µM. In the case of `O=C1c2ccccc2C2=Nc3ccccc3SC(c3cccc(F)c3)C12` (stereo unspecified), the EC50 is reported as 8.95 µM. `Cc1cc(C(=O)NNC(=S)NC(=O)/C=C/c2ccccc2Cl)n[nH]1` gave an EC50 of 23.6 µM. In the case of `O=c1c(Br)c(Br)cnn1-c1ccccc1`, the EC50 is reported as 1.27 µM. For `CCOc1ccccc1NS(=O)(=O)c1ccc(Br)s1`, the EC50 was 40.5 µM. `Cc1nn(-c2ccccc2)c(C)c1/C=N/NC(=O)c1cc(-c2cccc3ccccc23)n[nH]1` was tested, and the EC50 was 17.4 µM. With `CCCCCc1ccc(OCCC[n+]2ccccc2)c(CCCCC)c1` the EC50 was 2.78 µM. With `COc1ccc(OCc2n(CC(=O)OC3CC(C)CCC3C(C)C)c3ccccc3[n+]2C)cc1` (stereo unspecified) the EC50 was 1.6 µM. In the case of `Clc1ccc(-c2csc3ncnc(N4CCc5ccccc5C4)c23)cc1`, the EC50 is reported as 44 µM. `O=S1(=O)CCC(NC(=S)SCCOc2ccccc2)C1` (stereo unspecified) showed an EC50 of 16.2 µM. `CC(C(=O)c1ccc(-c2ccccc2)cc1)[n+]1cccc(NC(=O)c2ccccc2)c1` (stereo unspecified) gave an EC50 of 19.6 µM. `CCCCCCCCCCCCCCCC[n+]1ccc(/C=N/O)cc1` gave an EC50 of 0.37 µM. Work on `CCCCCCCCCC[N+](C)(C)CC/C=C1/c2ccccc2Sc2ccc(Cl)cc21` yielded an EC50 of 1.67 µM. `O=C(Nc1ccc2snnc2c1)Nc1cccc2ccccc12` was tested, and the EC50 was 33.7 µM. With `Oc1c(CN2CCCCC2)cc(COCc2ccccc2)c2cccnc12` the EC50 was 6 µM. Work on `Oc1c(C(Nc2nc3ccccc3s2)c2ccco2)ccc2cccnc12` (stereo unspecified) yielded an EC50 of 0.65 µM. `Oc1ccc(C=Nc2ccc3ncccc3c2)c(O)c1` gave an EC50 of 14.2 µM. With `Cc1cccc(NC(=S)NC(NC(=O)c2ccco2)C(Cl)(Cl)Cl)c1` (stereo unspecified) the EC50 was 21.7 µM. `NC(N)=NN=C1CCCCCCCCCCC1` showed an EC50 of 7.67 µM. With `CCCNC1=C(C)C(=O)C2=C(C1=O)C(COC(N)=O)[C@]1(OC)C3NC3CN21` (stereo partly specified) the EC50 was 10.1 µM. `c1ccc2c(C3=NNC(=NC4CCCCC4)SC3)c[nH]c2c1` was tested, and the EC50 was 19.1 µM. `c1ccc(Nc2ccnc(Nc3ccccc3)n2)cc1` gave an EC50 of 35 µM. Compound `O=C(NC(=S)NNC(=O)c1ccccc1O)c1ccco1` has an EC50 of 14.6 µM. `Cc1ccc(C(=O)O)cc1N=Cc1cc(Br)cc(Br)c1O` gave an EC50 of 37.2 µM. `COc1cccc(/C=N\NC(=O)Cn2nnc3ccccc32)c1O` gave an EC50 of 10.9 µM. In the case of `Cc1[nH]c2ccccc2c1C(=O)COC(=O)c1ccc([N+](=O)[O-])s1`, the EC50 is reported as 47.5 µM. Work on `Cc1ccc(S(=O)(=O)Nc2cc(Cl)c(O)c3ncccc23)cc1` yielded an EC50 of 1.55 µM. For `O=C(CSc1nc2ccccc2s1)N/N=C/c1cc([N+](=O)[O-])ccc1O`, the EC50 was 26.4 µM. Work on `Nc1nonc1-n1nnc(C(=O)N/N=C/c2cc(Br)ccc2O)c1CSC1=NCCS1` yielded an EC50 of 1.54 µM. Work on `Nc1nonc1C(=O)N/N=C/c1cc(Br)ccc1O` yielded an EC50 of 3.12 µM. Work on `Clc1ccc(C[n+]2cc(-c3ccc(Cl)cc3)n3c2CCC3)cc1` yielded an EC50 of 17.7 µM. Work on `Cc1[nH]n(-c2ccccc2)c(=O)c1/C=N/Nc1nncc(-c2ccccc2)n1` yielded an EC50 of 0.57 µM. `COc1cccc(Nc2nc(NCC3CCCO3)c3ccccc3n2)c1` (stereo unspecified) showed an EC50 of 2.88 µM. For `CCOC(=O)CSc1n[nH]c(NC(=O)c2cccc(C)c2)n1`, the EC50 was 48.7 µM. For `C/C(=N\NC(=O)c1cc2ccccc2cc1O)c1ccccn1`, the EC50 was 0.76 µM. `O=C(NCc1ccco1)c1cccc(Nc2nc3ccc(Br)cc3[nH]2)c1` gave an EC50 of 44.6 µM. With `S=C(Nc1ccccc1)Nc1nc2ccccc2n1CCOc1ccc(Cl)cc1` the EC50 was 15 µM. With `O=C(N/N=C/C1C(c2ccccc2)C1(Cl)Cl)c1cccc(Cl)c1` (stereo unspecified) the EC50 was 44 µM. In the case of `Cc1ccccc1Nc1cc(C)c2c(O)cccc2n1`, the EC50 is reported as 7.56 µM. Work on `Cc1ccc(SC(c2ccc(C)cc2)C(Cn2cncn2)C(=O)c2ccccc2)cc1` (stereo unspecified) yielded an EC50 of 49.8 µM. `O=[N+]([O-])c1cc(Cl)c(O)c2ncccc12` gave an EC50 of 15 µM. `O=C(C[n+]1cc(-c2ccc(Cl)cc2)n2c1CCC2)Nc1nc(-c2ccc(F)cc2)cs1` showed an EC50 of 26.7 µM. Work on `NC1=NC2(CCCCC2)N=C(Nc2ccc(Br)cc2)N1` yielded an EC50 of 2.8 µM. Work on `c1ccc(Cc2nnc(-c3ccccc3)o2)cc1` yielded an EC50 of 30.7 µM. In the case of `O=C1C2=C(NC(=S)NC2c2ccc(Cl)cc2)NC(c2ccc(Cl)cc2)N1c1ccc(Cl)cc1` (stereo unspecified), the EC50 is reported as 11.3 µM. Compound `CCN1CCN(C(c2ccc(C(F)(F)F)cc2)c2ccc3cccnc3c2O)CC1` (stereo unspecified) has an EC50 of 1.78 µM. For `COC12C(COC(N)=O)C3=C(C(=O)C(C)=C(N)C3=O)N1CC1C2N1C` (stereo unspecified), the EC50 was 9.05 µM. Work on `C/C(CC(=O)Nc1ccc(Cl)c(C(F)(F)F)c1)=N\NC(=O)c1cccc(O)c1` yielded an EC50 of 24.2 µM.
